In patent US8138191B2, “Inhibitor compounds and cancer treatment methods” (Critical Outcome Technologies Inc., priority 2007, dated 2012):

What was measured:
[1] = test system: total Akt protein in DMS-114 cells; test: Total Akt by western blot analysis, DMS-114; format: cell-based, human; conditions: DMS-114, 250 nM, after 24 hrs
Description: Cell viability was determined at 24, 48, and 96 hrs by the trypan exclusion method. Whole cell lysates were prepared using standard procedures and fifty micrograms of lysate protein was separated on SDS-PAGE gels and analyzed by western blotting.
Cell viability was determined at 24, 48, and 96 h by the trypan exclusion method. Whole cell lysates were prepared using standard procedures and 50 μg of lysate protein was separated on SDS-PAGE gels and analyzed by western blotting.

[2] = test system: DMS114 and SHP-77 human small cell lung cancer lines; test: Actual outcome of in vitro testing in both reference human SCLC lines; format: cell-based
Description: (§1) Briefly, cells were plated in plastic tissue culture plates and grown under standard conditions for each cell line, in carbon dioxide/oxygen atmosphere in plastic tissue culture plates, in the presence of COTI-2 or COTI-219 compounds at 35° C. for 3 days. Control cultures were treated with vehicle minus compound. Cells were counted after 3 days in culture and at a cell density of no more than 80%. The following cell lines, obtained from the National Cancer Institute, were tested: human SCLC cell lines DMS153, DMS114, SHP77; human NSCLC cell lines H226, A460, A560; human breast cancer cell lines T47D, MCF7; human colon cancer cell line HT29; and, human Leukemia cell lines K562, HL60.

DMS114 cells = test: Proliferation with anti-cancer agents plus COTI-2, DMS114; format: cell-based, human
SHP77 = test: in vitro IC50 against cancer cell lines, SHP77; format: cell-based; conditions: Homo sapiens, 72 h; SHP77, SCLC, 3 days
Description: as §1

[3] = test system: AKT1, AKT2, AKT3 expression in a panel of cell lines; test: Correlation between AKT isoform expression and COTI-2 IC50 in a panel of cell lines; format: cell-based, human; conditions: corrected for total AKT expression
Excerpt: Cell cultures were maintained under regular tissue culture conditions and passaged 1-2 times a week as recommended by ATCC. For siRNA experiments the manufacturer's conditions for growth and transfection were followed. All siRNA reagents for AKT and AKT2 transfections were obtained from Cell Signaling.
Routine laboratory methods were employed for the production of cellular lysates, protein quantification, SDS-PAGE and western blotting. All antibodies were obtained from Cell Signaling and Abcam. To determine total AKT & AKT2 in DMS114 cells, 5×10^4 cells were incubated for 48 h with 10-100 ng of AKT2 siRNA or a scrambled control oligonucleotide. Cells were lysed and 50 μg of protein was separated by SDS-PAGE and blotted with antibody to total AKT or AKT2.
The expression of AKT1, AKT2, AKT3, total AKT and β-actin were examined in a panel of cell lines representing various types of cancers, with the aim of determining if a correlation exists with the pre-determined IC50's for these cell lines. […] The down-regulation of AKT2 prior to the addition of COTI-2 was confirmed with western blotting in DMS114 cell lines using an antibody to AKT2 (FIG. 35).

A460 = test: in vitro IC50 against cancer cell lines, A460; format: cell-based; conditions: Homo sapiens, 72 h; A460, NSCLC, 3 days
Description: as §1

K562 = test: in vitro IC50 against cancer cell lines, K562; format: cell-based; conditions: Homo sapiens, 72 h; K562, Leukemia, 3 days
Description: as §1

U87 = test: IC50 human glioma/astrocytoma cell lines (alamar Blue), U87; conditions: Homo sapiens, U-87 MG
CYP2C9 = CYP2C9 (Homo sapiens, UniProt P11712); test: in vitro; conditions: both
DMS114 = test: in vitro IC50 against cancer cell lines, DMS114; format: cell-based; conditions: Homo sapiens, DMS-114, 72 h; DMS114, SCLC, 3 days
Description: as §1

MCF-7 cells = test: Sensitivity to COTI-2 after PTEN siRNA knockdown (alamar Blue), MCF-7; format: cell-based, human; conditions: MCF-7, 48 h post-transfection
Description: Briefly, HeLa and MCF-7 cells were transfected with 100 nM PTEN siRNA or control non-targeted siRNA at 48 or 144 h prior to exposure to various concentrations of COTI-2.
To assess the capacity of transient siRNA transfection to alter the ability of cells to proliferate in the presence or absence of COTI-2, HeLa or MCF-7 cells (both PTEN-positive) were plated in T25 flasks and transfected 24 h later with PTEN siRNA or non-targeting control siRNA (100 nM in both cases), using Oligofectamine Reagent (Invitrogen) according to the manufacturer's instructions and as previously described (J Pharmacol Exp Ther, 322:123-132). […] PTEN and 18S rRNA mRNA levels were determined by semi-quantitative reverse transcription PCR. […]
For determination of drug sensitivity, HeLa and MCF-7 cells (transfected with PTEN siRNA or control, non-targeted siRNA 48 or 144 hours prior) were re-plated in 96-well plates (VWR, Mississauga, ON, Canada) at 1700 (MCF-7) and 1200 (HeLa) cells per well in a volume of 100 μl of DMEM+10% FBS. […] Cells were then grown for 4 days, and viable cell numbers were assessed by the alamar Blue fluorescence assay using a Wallac Victor^2 multilabel counter (PerkinElmer Wallac, Gaithersburg, Md.). […]

Chain of CYP2C9 (P11712 whole entry): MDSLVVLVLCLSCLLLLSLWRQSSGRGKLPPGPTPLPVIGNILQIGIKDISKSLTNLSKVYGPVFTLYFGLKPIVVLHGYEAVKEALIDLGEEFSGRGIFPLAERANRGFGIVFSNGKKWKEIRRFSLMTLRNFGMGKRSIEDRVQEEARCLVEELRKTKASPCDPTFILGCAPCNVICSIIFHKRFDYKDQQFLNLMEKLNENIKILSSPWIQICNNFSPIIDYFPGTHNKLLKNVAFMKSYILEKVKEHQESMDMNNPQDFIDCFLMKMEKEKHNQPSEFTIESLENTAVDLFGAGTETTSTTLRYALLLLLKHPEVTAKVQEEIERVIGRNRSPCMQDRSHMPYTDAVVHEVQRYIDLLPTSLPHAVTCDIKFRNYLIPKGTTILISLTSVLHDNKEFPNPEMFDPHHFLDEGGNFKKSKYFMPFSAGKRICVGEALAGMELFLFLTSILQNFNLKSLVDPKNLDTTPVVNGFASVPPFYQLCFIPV

## S=C(N/N=C1/CCCc2cccnc21)N1CCN(c2ccccn2)CC1 [COTI-2]
[1]
  total Akt protein: decreased
[2]
  Actual outcome of in vitro testing: Active
DMS114 cells; DMS114, 31 nM
  reduction of proliferation as a single agent: 25%
DMS114 cells; DMS114, 73 nM
  reduction of proliferation as a single agent: 25%
SHP77
  IC50: 156 nM
[3]
  correlation of AKT2 expression with COTI-2 IC50: inversely correlated
A460
  IC50: 7900 nM
K562
  IC50: 176 nM
U87
  IC50: 48 nM
CYP2C9; human liver microsomes, pH 7.4, probe diclofenac (10 µM)
  inhibition at 15 min, 10 µM: 2%
CYP2C9; liver microsomes, pH 7.4, probe diclofenac
  inhibition at 15 min, 10 µM: < 50%
DMS114
  IC50: 51 nM
MCF-7 cells
  resistance to COTI-2 after PTEN siRNA transfection: significant increase in the resistance

## CN1CCN(C(=S)NN=C2c3ncccc3-c3cccnc32)CC1 [COTI-219]
[2]
  Actual outcome of in vitro testing: Active
SHP77
  IC50: 787 nM
K562
  IC50: 222 nM
U87
  IC50: 2370 nM
DMS114
  IC50: 267 nM
